In patent US6288091A, “Antiherpes virus compounds and methods for their preparation and use” (Boehringer Ingelheim Ltd., priority 1999, dated 2001):
pEC50, pIC50: −log10 of the molar value.

What was measured:
[1] = tested on: HSV-1 acyclovir-resistant mutant strain PAA^r 5; experiment: Acyclovir-resistant HSV-1 cutaneous infection in immunodeficient nu/nu mice, strain PAAr 5; assay type: in vivo, female nu/nu mice
Description: (§1) Animals were cutaneously inoculated with 10^7 PFU pf HSV-1 acyclovir resistant mutant viruses. The resulting cutaneous lesions were scored according to a subjective scoring system. The compound of Group 1 (Entry No. 29 in table 1) was administered orally (gavage) in an acidified vehicle (0.033 N aqueous HCl, tid for 10 days). Animals were similarly treated with acyclovir in 0.033 N aqueous HCl or only with the vehicle (0.033 N aqueous HCl). […] The dose-dependent effect of treatment with Entry No. 29 at 25 mg/kg/day (-.diamond-solid.-), 50 mg/kg/day (-.tangle-solidup.-), 75 mg/kg/day (-.quadrature.-), 100 mg/kg/day (-.circle-solid.-) or 125 mg/kg/day (-.box-solid.-), compared to treatment with vehicle alone (-.smallcircle.-), is shown in FIG. 2. The ED50 of Entry No. 29 was about 60 mg/kg/day. Similar experiments were done using the HSV-1 acyclovir-resistant mutant strain dlsptk (FIGS. 3 and 4). […] The dose-dependent effect of treatment with Entry No. 29 at 25 mg/kg/day (-.diamond-solid.-), 50 mg/kg/day (-.tangle-solidup.-), 75 mg/kg/day (-.quadrature.-), 100 mg/kg/day (-.circle-solid.-) or 125 mg/kg/day (-.box-solid.-), compared to treatment with vehicle alone (-.smallcircle.-), is shown in FIG. 4. […]

HSV-2 HG-52 = experiment: Mouse genital model, vaginal HSV-2 infection, oral administration; assay type: in vivo, Swiss Webster mouse; details: Human alphaherpesvirus 2, 3 h, Group 1 Table 1 entries, commencing three hours post infection, read-out: ED50, reduction of viral pathology
Description: Antiviral activity for Group 1 compounds was also observed in the mouse genital model of R. W. Sidwell et al., supra. Vaginal HSV-2 infection in the Swiss Webster mouse was initiated by vaginal irritation and instillation of HSV-2 (HSV-2 HG-52, 1×10^7 PFU). Viral pathology was measured as described above.

HSV-1 helicase-primase = biological target: T1, HSV-1 helicase-primase (Human herpesvirus 1, UniProt P10189+P10236); experiment: HSV-1 DNA-dependent ATPase assay (inhibition of HSV-1 helicase-primase); assay type: biochemical
T1 construct: made in house; host or cells: Sf21 insect cells triply infected with recombinant baculoviruses (UL5, UL8, UL52)
In short: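 Holoenzyme (UL5/UL8/UL52) expressed in baculovirus-infected Sf21 cells and purified, used at 3 μg/mL with 4 mM ATP and 25 μM primed M13 ssDNA in HEPES pH 7.5, 5.5 mM MgCl2, 3.3% DMSO. Incubated 20 min at 34°. Released phosphate read by malachite green at 650 nm, and activity taken from net absorbance with versus without inhibitor.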

HSV-1 strain F or KOS = experiment: Inhibition of herpes simplex virus (HSV-1) replication in cell culture (BHK-21 cells, glycoprotein C ELISA); assay type: cell-based
In short: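 BHK-21 clone 13 cells infected with HSV-1 F or KOS at MOI 0.05 PFU/cell for 1 h at 37°, washed, then treated with compound in α-MEM/2% FBS for 24 h. Late glycoprotein C quantified by ELISA (mAb C11, HRP/OPD, 450 nm); EC50 from % inhibition.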

[2] = Inhibition of HCMV replication, ELISA assay (Hs-68 cells); assay type: cell-based, Human Cytomegalovirus (HCMV); details: human, read-out: Cytotoxic at this concentration (footnote *, ELISA CMV column)
In short: (§2)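 Hs-68 fibroblasts at 80–90% confluency infected with HCMV AD169 at MOI 0.01 PFU/cell for 2 h, washed, then cultured 8 days at 37 °C with test compound in DMEM/5% FBS. Late protein p28 detected by ELISA (mAb UL99, HRP/OPD, 450 nm); EC50 from % inhibition of replication.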

HCMV (strain AD169) [3] = experiment: as above; assay type: cell-based, Human Cytomegalovirus (HCMV); details: read-out: ELISA CMV EC50
In short: as §2

[4] = Inhibition of HCMV replication, plaque reduction assay (PRA, Hs-68 cells); assay type: cell-based, Human Cytomegalovirus (HCMV); details: human
In short: (§3)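 Hs-68 monolayers (80–90% confluent) were infected with ~50 PFU HCMV AD169 for 2 h at 37°, then given compound in DMEM/5% inactivated FBS, refreshed after 4 days and kept 4 more days. Plaques were counted after formaldehyde fixation and crystal violet staining. EC50 derives from percent plaque reduction versus untreated wells.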

HCMV (strain AD169) [5] = experiment: as above; assay type: cell-based, Human Cytomegalovirus (HCMV); details: read-out: PRA CMV EC50
In short: as §3

[6] = tested on: HSV-1 acyclovir-resistant mutant strain dlsptk; experiment: Acyclovir-resistant HSV-1 cutaneous infection in immunodeficient nu/nu mice, strain dlsptk; assay type: in vivo, female nu/nu mice; details: oral gavage 100 mg/kg/day, tid for 10 days; strain dlsptk (FIG. 3)
Description: as §1

[7] = Human betaherpesvirus 5, AD169, Hs68, Group 2 Table 2 entries
[8] = Group 2 Table 1 entries, read-out: Cytotoxic at this concentration (footnote *, PRA CMV)
[9] = Human betaherpesvirus 5, AD169, Hs68, Group 2 Table 1 entries
[10] = Group 1 Table 1 entries, read-out: Cytotoxic at this concentration (footnote *, PRA CMV)
[11] = Human betaherpesvirus 5, AD169, Hs68, Group 1 Table 1 entries
[12] = Human alphaherpesvirus 1, BHK-21, Group 1 Table 1 entries
[13] = Human betaherpesvirus 5, AD169, Hs68, Group 1 Table 2 entries

T1 sequence (P10192 whole entry): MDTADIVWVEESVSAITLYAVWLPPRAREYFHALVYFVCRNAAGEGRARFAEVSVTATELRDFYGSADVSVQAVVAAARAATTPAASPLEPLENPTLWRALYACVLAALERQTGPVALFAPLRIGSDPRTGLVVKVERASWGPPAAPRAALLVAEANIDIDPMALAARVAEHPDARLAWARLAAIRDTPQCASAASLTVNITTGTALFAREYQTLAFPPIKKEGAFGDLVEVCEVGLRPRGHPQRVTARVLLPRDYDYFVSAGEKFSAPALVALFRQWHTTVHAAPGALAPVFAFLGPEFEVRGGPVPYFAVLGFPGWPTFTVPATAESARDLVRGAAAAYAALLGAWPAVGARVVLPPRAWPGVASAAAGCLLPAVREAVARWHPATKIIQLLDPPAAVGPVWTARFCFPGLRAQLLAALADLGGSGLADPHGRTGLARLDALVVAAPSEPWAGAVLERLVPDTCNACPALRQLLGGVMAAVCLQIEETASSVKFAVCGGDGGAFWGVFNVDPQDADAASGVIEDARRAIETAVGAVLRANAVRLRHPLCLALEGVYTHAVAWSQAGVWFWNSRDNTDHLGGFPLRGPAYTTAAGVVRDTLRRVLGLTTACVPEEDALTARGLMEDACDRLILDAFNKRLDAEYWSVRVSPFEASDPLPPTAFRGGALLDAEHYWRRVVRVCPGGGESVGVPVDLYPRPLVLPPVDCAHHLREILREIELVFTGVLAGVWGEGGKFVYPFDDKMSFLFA
T1 sequence (P10236 whole entry): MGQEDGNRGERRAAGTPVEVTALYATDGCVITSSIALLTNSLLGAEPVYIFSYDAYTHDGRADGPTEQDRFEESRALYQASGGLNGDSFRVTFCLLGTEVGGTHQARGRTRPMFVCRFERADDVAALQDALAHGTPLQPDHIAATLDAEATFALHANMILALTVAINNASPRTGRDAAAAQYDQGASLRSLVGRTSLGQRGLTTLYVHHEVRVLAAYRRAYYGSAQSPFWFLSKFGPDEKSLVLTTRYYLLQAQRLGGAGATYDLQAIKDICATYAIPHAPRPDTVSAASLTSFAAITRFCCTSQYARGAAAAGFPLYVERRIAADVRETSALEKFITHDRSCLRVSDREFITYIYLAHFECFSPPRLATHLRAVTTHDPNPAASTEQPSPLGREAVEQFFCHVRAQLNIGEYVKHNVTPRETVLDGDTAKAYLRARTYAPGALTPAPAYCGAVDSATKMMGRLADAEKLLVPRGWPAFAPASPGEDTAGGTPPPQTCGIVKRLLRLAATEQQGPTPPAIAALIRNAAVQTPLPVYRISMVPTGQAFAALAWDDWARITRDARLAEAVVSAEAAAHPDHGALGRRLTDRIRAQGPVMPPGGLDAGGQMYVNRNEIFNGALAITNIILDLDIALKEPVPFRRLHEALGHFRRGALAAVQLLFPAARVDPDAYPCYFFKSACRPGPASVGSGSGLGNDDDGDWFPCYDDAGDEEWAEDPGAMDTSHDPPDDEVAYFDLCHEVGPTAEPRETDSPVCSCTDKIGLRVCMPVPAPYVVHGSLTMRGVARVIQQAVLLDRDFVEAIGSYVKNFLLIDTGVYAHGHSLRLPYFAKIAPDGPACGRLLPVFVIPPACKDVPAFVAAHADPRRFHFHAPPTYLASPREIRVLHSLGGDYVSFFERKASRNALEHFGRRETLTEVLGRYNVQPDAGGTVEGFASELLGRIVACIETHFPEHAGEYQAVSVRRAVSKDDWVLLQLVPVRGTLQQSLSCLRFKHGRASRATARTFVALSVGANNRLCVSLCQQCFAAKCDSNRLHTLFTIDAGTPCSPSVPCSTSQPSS
T1 sequence (P10189 whole entry): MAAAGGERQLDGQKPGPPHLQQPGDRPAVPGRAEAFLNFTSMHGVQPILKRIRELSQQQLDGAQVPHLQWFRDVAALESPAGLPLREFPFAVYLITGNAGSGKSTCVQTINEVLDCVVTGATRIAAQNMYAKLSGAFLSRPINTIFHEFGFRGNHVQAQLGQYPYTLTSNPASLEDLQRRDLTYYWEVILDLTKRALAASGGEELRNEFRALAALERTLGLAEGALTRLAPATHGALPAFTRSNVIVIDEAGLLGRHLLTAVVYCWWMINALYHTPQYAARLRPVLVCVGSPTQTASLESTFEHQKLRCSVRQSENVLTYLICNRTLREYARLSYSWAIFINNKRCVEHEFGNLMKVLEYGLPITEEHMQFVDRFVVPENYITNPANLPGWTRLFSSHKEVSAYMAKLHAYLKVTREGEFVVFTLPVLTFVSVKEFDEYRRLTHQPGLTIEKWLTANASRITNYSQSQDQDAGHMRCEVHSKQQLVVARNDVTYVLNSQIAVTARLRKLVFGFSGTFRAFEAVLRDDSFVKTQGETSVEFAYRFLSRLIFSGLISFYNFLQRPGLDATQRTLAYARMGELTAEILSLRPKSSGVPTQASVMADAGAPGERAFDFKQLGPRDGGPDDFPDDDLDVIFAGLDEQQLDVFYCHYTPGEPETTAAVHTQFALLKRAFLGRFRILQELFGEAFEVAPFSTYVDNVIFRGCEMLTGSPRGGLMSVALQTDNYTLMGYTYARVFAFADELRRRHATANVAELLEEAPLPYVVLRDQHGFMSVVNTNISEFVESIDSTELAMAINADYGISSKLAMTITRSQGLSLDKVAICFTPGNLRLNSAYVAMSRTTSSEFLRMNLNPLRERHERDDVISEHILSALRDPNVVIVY

`Nc1nc(-c2ccc(NC(=O)CN(Cc3ccccc3)C(=O)c3ccncc3)cc2)cs1` [Entry 29] showed an ED50 ([1]; Human alphaherpesvirus 1, po, 240 h, read-out: ED50, cutaneous lesions) of roughly 60 mg/kg and an ED50 (HSV-2 HG-52) of 60 mg/kg.
`Nc1nc(-c2ccc(NC(=O)[C@H](Cc3ccccc3)NC(=O)C3CCCCC3)cc2)cs1` [Example 1] gave a pIC50 (HSV-1 helicase-primase; Group 1 Table 5 entries) of 7.28, a pEC50 (HSV-1 strain F or KOS; Human alphaherpesvirus 1, BHK-21, Group 1 Table 5 entries) of 7.10 and an MCC at 192 h ([2]; Group 1 Table 5 entries) of 14 µM. The pEC50 (HCMV (strain AD169) [3]; Human betaherpesvirus 5, AD169, Hs68, Group 1 Table 5 entries) was 4.85.
`Nc1nc(-c2ccc(NC(=O)C(=O)N(Cc3ccccc3)Cc3ccccc3)cc2)cs1` [Example 2] showed an MCC at 192 h ([4]; Group 2 Table 2 entries, read-out: Cytotoxic at this concentration (footnote *, PRA CMV)) of 12 µM, a pEC50 (HCMV (strain AD169) [5]; [7]) of 4.92 and a pEC50 (HSV-1 strain F or KOS; Human alphaherpesvirus 1, BHK-21, Group 2 Table 2 entries) of 6.11. It also gave a pEC50 (HCMV (strain AD169) [3]; [7]) of 5.00.
Molecule `Nc1nc(-c2ccc(NC(=O)NCCc3ccccn3)cc2)cs1` [Example 3] has an MCC at 192 h [4, 8] of 93 µM, a pEC50 (HCMV (strain AD169) [5]; [9]) of less than 4.03 and a pIC50 (HSV-1 helicase-primase; Group 2 Table 1 entries) of 5.28. For the same molecule, the pEC50 (HSV-1 strain F or KOS; Human alphaherpesvirus 1, BHK-21, Group 2 Table 1 entries) was 5.44.
In the case of `Nc1nc(-c2ccc(NC(=O)CNCc3ccccn3)cc2)cs1` [Example 12], the MCC at 192 h [4, 10] was 84 µM, the pEC50 (HCMV (strain AD169) [5]; [11]) was 4.08 and the pIC50 (HSV-1 helicase-primase; Group 1 Table 1 entries) was 5.10. The pEC50 (HSV-1 strain F or KOS; [12]) was 5.82.
With `CC(C)(C)OC(=O)N(CCC(=O)Nc1ccc(-c2csc(N)n2)cc1)C1CCc2ccccc21` (centres unmarked) [Example 13] the MCC at 192 h ([4]; Group 1 Table 2 entries, read-out: Cytotoxic at this concentration (footnote, PRA CMV)) was 9 µM, the pEC50 (HCMV (strain AD169) [5]; [13]) was 5.05 and the pEC50 (HSV-1 strain F or KOS; Human alphaherpesvirus 1, BHK-21, Group 1 Table 2 entries) was 5.47. The pEC50 (HCMV (strain AD169) [3]; [13]) was 4.43.
`Nc1nc(-c2ccc(NC(=O)NCc3ccc(Cl)cc3)cc2)cs1` [Example 21] gave an MCC at 192 h [4, 8] of 1 µM, a pEC50 (HCMV (strain AD169) [5]; [9]) of less than 6.00 and a pIC50 (HSV-1 helicase-primase; Group 2 Table 1 entries) of 5.14.
`Nc1nc(-c2ccc(NC(=O)NCc3cccc(F)c3)cc2)cs1` [Example 22] gave an MCC at 192 h [4, 8] of 8 µM, a pEC50 (HCMV (strain AD169) [5]; [9]) of less than 5.10 and a pIC50 (HSV-1 helicase-primase; Group 2 Table 1 entries) of 5.89.
In the case of `Nc1nc(-c2ccc(NC(=O)NCc3ccccc3F)cc2)cs1` [Example 23], the MCC at 192 h [4, 8] was 4 µM, the pEC50 (HCMV (strain AD169) [5]; [9]) was less than 5.40 and the pIC50 (HSV-1 helicase-primase; Group 2 Table 1 entries) was 5.70.
Molecule `Nc1nc(-c2ccc(NC(=O)NCCc3ccc(F)cc3)cc2)cs1` [Example 24] has an MCC at 192 h [4, 8] of 5 µM, a pEC50 (HCMV (strain AD169) [5]; [9]) of less than 5.30 and a pIC50 (HSV-1 helicase-primase; Group 2 Table 1 entries) of 4.52.
Work on `CN(C)c1ccc(CNC(=O)Nc2ccc(-c3csc(N)n3)cc2)cc1` [Example 25] yielded an MCC at 192 h [4, 8] of 18 µM, a pEC50 (HCMV (strain AD169) [5]; [9]) of less than 4.74 and a pIC50 (HSV-1 helicase-primase; Group 2 Table 1 entries) of 5.54.
In the case of `C[C@H](NC(=O)Nc1ccc(-c2csc(N)n2)cc1)c1ccccc1` [Example 26], the MCC at 192 h [4, 8] was 74 µM, the pEC50 (HCMV (strain AD169) [5]; [9]) was less than 4.13 and the pIC50 (HSV-1 helicase-primase; Group 2 Table 1 entries) was 6.23.
With `CCCC(CCC)N(CC(=O)Nc1ccc(-c2csc(N)n2)cc1)C(=O)OC(C)(C)C` [Example 111] the pIC50 (HSV-1 helicase-primase; Group 1 Table 1 entries) was 6.43, the pEC50 (HSV-1 strain F or KOS; [12]) was 6.62 and the MCC at 192 h ([2]; Group 1 Table 1 entries) was 4 µM. The pEC50 (HCMV (strain AD169) [3]; [11]) was 5.40.
Molecule `Nc1nc(-c2ccc(NC(=O)CN(Cc3ccccc3)C(=O)Cc3cccnc3)cc2)cs1` [Example 113] has an MCC at 192 h [4, 10] of 50 µM, a pEC50 (HCMV (strain AD169) [5]; [11]) of less than 4.30 and a pIC50 (HSV-1 helicase-primase; Group 1 Table 1 entries) of 5.70.
In the case of `Cc1ccccc1CN(CC(=O)Nc1ccc(-c2csc(N)n2)cc1)C(=O)Cc1ccccn1` [Example 127], the MCC at 192 h [4, 10] was 25 µM, the pEC50 (HCMV (strain AD169) [5]; [11]) was 4.60 and the pIC50 (HSV-1 helicase-primase; Group 1 Table 1 entries) was 6.00. It also gave a pEC50 (HCMV (strain AD169) [3]; [11]) of 5.06.
For `Nc1nc2c(ncn2COCCO)c(=O)[nH]1` [acyclovir, reference compound], the “effect on cutaneous lesions” value [6] was “no effect on cutaneous lesions” and the “effect on cutaneous lesions” value ([1]; oral gavage 100 mg/kg/day, tid for 10 days, strain PAAr 5 (FIG. 1)) was “no effect on cutaneous lesions”.
